Data set [1] can be described thus: Physical stability: fibril formation in Thioflavin T (ThT) assay with agitation. It counts as physicochemical. Conditions: TFA, 25° C., agitation. The gist of the method:
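Read-out is continuous ThT fluorescence at 486 nm, with lag time taken where signal reaches 10% between pre- and post-transition baselines. Filtered samples (1, 5, 7.5 or 15 mg/ml; pH 7.4 phosphate buffer or NaOH-adjusted water) were stressed at 25° C. by orbital rotation at 300 rpm with one silica bead per well.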

Data set [2] in a line: Solubility by visual inspection of peptide solutions. The conditions noted are these: TFA. It counts as physicochemical. A digest of the protocol: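 Solubility scored by eye: clear, colorless appearance after gentle mixing. Samples prepared at 1, 5, 7.5 or 15 mg/ml in either pH 7.4 water (NaOH-adjusted) or 50 mM sodium phosphate buffer, pH 7.4.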
Data set [3] deals with T1, human GIP receptor (human, UniProt P48546 22-466).
T1 sequence (looked up): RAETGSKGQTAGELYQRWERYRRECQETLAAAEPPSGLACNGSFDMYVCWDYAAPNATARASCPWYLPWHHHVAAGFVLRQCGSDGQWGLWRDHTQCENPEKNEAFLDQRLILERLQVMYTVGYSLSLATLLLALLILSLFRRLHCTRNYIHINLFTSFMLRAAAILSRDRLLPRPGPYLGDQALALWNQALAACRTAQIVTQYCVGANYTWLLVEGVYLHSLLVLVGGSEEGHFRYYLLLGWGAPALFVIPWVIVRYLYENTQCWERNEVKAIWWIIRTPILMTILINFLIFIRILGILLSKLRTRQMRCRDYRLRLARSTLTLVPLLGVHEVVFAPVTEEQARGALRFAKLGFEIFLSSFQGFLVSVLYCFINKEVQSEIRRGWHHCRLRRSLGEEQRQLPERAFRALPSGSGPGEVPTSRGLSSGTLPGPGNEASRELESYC
Nature of the data set: cell-based or functional assay.

Non-standard residues stand in square brackets, D forms with d. Residues, ends and D or L forms follow the SMILES beside them. Groups on a side chain read outwards from the residue. No end group written: not given here. *: point of attachment. C16 diacid = O=C(O)CCCCCCCCCCCCCCC(=O)*; Aib = CC(C)(N)C(=O)O Where only a bound is given, the exact number is not on record here.

In the case of `CC[C@H](C)[C@H](NC(=O)[C@H](CCCCN)NC(=O)[C@H](CCC(=O)O)NC(=O)[C@H](CC(C)C)NC(=O)C(C)(C)NC(=O)[C@@H](NC(=O)[C@H](CO)NC(=O)[C@H](Cc1ccc(O)cc1)NC(=O)[C@H](CCC(=O)O)NC(=O)[C@H](CO)NC(=O)[C@@H](NC(=O)[C@H](Cc1ccccc1)NC(=O)[C@@H](NC(=O)CNC(=O)[C@@H](N)CCC(=O)O)[C@@H](C)O)[C@@H](C)CC)[C@@H](C)CC)C(=O)N[C@@H](CCCCNC(=O)[C@H](C)NC(=O)[C@H](CCC(=O)O)NC(=O)[C@H](CC(C)C)NC(=O)[C@H](C)NC(=O)CCCCCCCCCCCCCCC(=O)O)C(=O)N[C@@H](CCC(N)=O)C(=O)N[C@@H](CCC(N)=O)C(=O)N[C@@H](CCC(=O)O)C(=O)N[C@@H](Cc1ccccc1)C(=O)N[C@H](C(=O)N[C@@H](CCC(=O)O)C(=O)N[C@@H](Cc1c[nH]c2ccccc12)C(=O)N[C@@H](CC(C)C)C(=O)N[C@@H](CC(C)C)C(=O)N[C@@H](C)C(=O)N[C@@H](CCC(N)=O)C(=O)N[C@@H](CCCCN)C(=O)N1CCC[C@H]1C(=O)N[C@@H](CO)C(=O)N[C@@H](CO)C(=O)NCC(=O)N[C@@H](C)C(=O)N1CCC[C@H]1C(=O)N1CCC[C@H]1C(=O)N1CCC[C@H]1C(=O)N[C@@H](CO)C(=O)O)C(C)C` [AT725] (H-EGTFISEYSI[Aib]LEKIK([Ala-Glu-Leu-Ala-C16 diacid])QQEFVEWLLAQKPSSGAPPPS-OH; N-terminus assumed), in data set [1] (1 mg/ml, Phosphate (7.4)), the “Avr lag time (h)” value was “fnd (Fnd = fibrils not detected within experiment time (96 hours) with agitation.)”. In addition, the Visual appearance result in data set [2] (1 mg/ml, Phosphate (7.4)) is reported as “Clear”.
For the molecule `CC[C@H](C)[C@H](NC(=O)[C@H](CO)NC(=O)[C@H](Cc1ccc(O)cc1)NC(=O)[C@H](CC(=O)O)NC(=O)[C@H](CO)NC(=O)[C@@H](NC(=O)[C@H](Cc1ccccc1)NC(=O)[C@@H](NC(=O)CNC(=O)[C@@H](N)CCC(=O)O)[C@@H](C)O)[C@@H](C)CC)C(=O)N[C@@H](C)C(=O)N[C@@H](CCSC)C(=O)N[C@@H](CC(=O)O)C(=O)N[C@@H](CCCCN)C(=O)N[C@@H](CCCCNC(=O)CCCCCCCCCCCCCCC(=O)O)C(=O)N[C@@H](Cc1c[nH]cn1)C(=O)N[C@@H](CCC(N)=O)C(=O)N[C@@H](CCC(N)=O)C(=O)N[C@@H](CC(=O)O)C(=O)N[C@@H](Cc1ccccc1)C(=O)N[C@H](C(=O)N[C@@H](CCC(=O)O)C(=O)N[C@@H](Cc1c[nH]c2ccccc12)C(=O)N[C@@H](CC(C)C)C(=O)N[C@@H](CC(C)C)C(=O)N[C@@H](C)C(=O)N[C@@H](CCC(N)=O)C(=O)N[C@@H](CCCCN)C(=O)N1CCC[C@H]1C(=O)N[C@@H](CO)C(=O)N[C@@H](CO)C(=O)NCC(=O)N[C@@H](C)C(=O)N1CCC[C@H]1C(=O)N1CCC[C@H]1C(=O)N1CCC[C@H]1C(=O)N[C@@H](CO)C(=O)O)C(C)C` [AT742] (H-EGTFISDYSIAMDKK(C16 diacid)HQQDFVEWLLAQKPSSGAPPPS-OH; N-terminus assumed), the “Avr lag time (h)” value in data set [1] (1 mg/ml, Phosphate (7.4)) is “fnd (Fnd = fibrils not detected within experiment time (96 hours) with agitation.)”. Moreover, the Visual appearance entry in data set [2] (1 mg/ml, Phosphate (7.4)) is listed as “Clear”.
For the molecule `CC[C@H](C)[C@H](NC(=O)[C@H](C)NC(=O)[C@H](CC(=O)O)NC(=O)[C@H](CCSC)NC(=O)[C@H](C)NC(=O)[C@@H](NC(=O)[C@H](CO)NC(=O)[C@H](Cc1ccc(O)cc1)NC(=O)[C@H](CC(=O)O)NC(=O)[C@H](CO)NC(=O)[C@@H](NC(=O)[C@H](Cc1ccccc1)NC(=O)[C@@H](NC(=O)CNC(=O)[C@@H](N)CCC(=O)O)[C@@H](C)O)[C@@H](C)CC)[C@@H](C)CC)C(=O)N[C@@H](CCCCNC(=O)CCCCCCCCCCCCCCC(=O)O)C(=O)N[C@@H](CCC(N)=O)C(=O)N[C@@H](CCC(N)=O)C(=O)N[C@@H](CC(=O)O)C(=O)N[C@@H](Cc1ccccc1)C(=O)N[C@H](C(=O)N[C@@H](CCC(=O)O)C(=O)N[C@@H](Cc1c[nH]c2ccccc12)C(=O)N[C@@H](CC(C)C)C(=O)N[C@@H](CC(C)C)C(=O)N[C@@H](C)C(=O)N[C@@H](CCC(N)=O)C(=O)N[C@@H](CCCCN)C(=O)N1CCC[C@H]1C(=O)N[C@@H](CO)C(=O)N[C@@H](CO)C(=O)NCC(=O)N[C@@H](C)C(=O)N1CCC[C@H]1C(=O)N1CCC[C@H]1C(=O)N1CCC[C@H]1C(=O)N[C@@H](CO)C(=O)O)C(C)C` [AT748] (H-EGTFISDYSIAMDAIK(C16 diacid)QQDFVEWLLAQKPSSGAPPPS-OH; N-terminus assumed), the “Avr lag time” value in data set [1] (1 mg/ml, Phosphate (7.4)) is recorded as <24 h. The Visual appearance result in data set [2] (1 mg/ml, Phosphate (7.4)) is “Clear”.
Regarding `CC[C@H](C)[C@H](NC(=O)[C@H](CCCCN)NC(=O)[C@H](CC(=O)O)NC(=O)[C@H](CCSC)NC(=O)C(C)(C)NC(=O)[C@@H](NC(=O)[C@H](CO)NC(=O)[C@H](Cc1ccc(O)cc1)NC(=O)[C@H](CC(=O)O)NC(=O)[C@H](CO)NC(=O)[C@@H](NC(=O)[C@H](Cc1ccccc1)NC(=O)[C@@H](NC(=O)CNC(=O)[C@@H](N)CCC(=O)O)[C@@H](C)O)[C@@H](C)CC)[C@@H](C)CC)C(=O)N[C@@H](CCCCNC(=O)CCCCCCCCCCCCCCC(=O)O)C(=O)N[C@@H](CCC(N)=O)C(=O)N[C@@H](CCC(N)=O)C(=O)N[C@@H](CC(=O)O)C(=O)N[C@@H](Cc1ccccc1)C(=O)N[C@H](C(=O)N[C@@H](CC(N)=O)C(=O)N[C@@H](Cc1c[nH]c2ccccc12)C(=O)N[C@@H](CC(C)C)C(=O)N[C@@H](CC(C)C)C(=O)N[C@@H](C)C(=O)N[C@@H](CCC(N)=O)C(=O)N[C@@H](CCCCN)C(=O)N1CCC[C@H]1C(=O)N[C@@H](CO)C(=O)N[C@@H](CO)C(=O)NCC(=O)N[C@@H](C)C(=O)N1CCC[C@H]1C(=O)N1CCC[C@H]1C(=O)N1CCC[C@H]1C(=O)N[C@@H](CO)C(=O)O)C(C)C` [AT760] (H-EGTFISDYSI[Aib]MDKIK(C16 diacid)QQDFVNWLLAQKPSSGAPPPS-OH; N-terminus assumed), the “Avr lag time (h)” value was “fnd (Fnd = fibrils not detected within experiment time (96 hours) with agitation.)” in data set [1] (1 mg/ml, Phosphate (7.4)) and “fnd (Fnd = fibrils not detected within experiment time (96 hours) with agitation.)” in data set [1] (5 mg/ml, MilliQ). The Visual appearance result in data set [2] (1 mg/ml, Phosphate (7.4)) is recorded as “Clear”; in data set [2] (5 mg/ml, MilliQ), “Clear”.

B1: AT719 (peptide)
peptide: EGTFISDYSIAMDKIK(C16 diacid)QQDFVNWLLAQK-OH
modifications: N-terminus assumed
SMILES: CC[C@H](C)[C@H](NC(=O)[C@H](CO)NC(=O)[C@H](Cc1ccc(O)cc1)NC(=O)[C@H](CC(=O)O)NC(=O)[C@H](CO)NC(=O)[C@@H](NC(=O)[C@H](Cc1ccccc1)NC(=O)[C@@H](NC(=O)CNC(=O)[C@@H](N)CCC(=O)O)[C@@H](C)O)[C@@H](C)CC)C(=O)N[C@@H](C)C(=O)N[C@@H](CCSC)C(=O)N[C@@H](CC(=O)O)C(=O)N[C@@H](CCCCN)C(=O)N[C@H](C(=O)N[C@@H](CCCCNC(=O)CCCCCCCCCCCCCCC(=O)O)C(=O)N[C@@H](CCC(N)=O)C(=O)N[C@@H](CCC(N)=O)C(=O)N[C@@H](CC(=O)O)C(=O)N[C@@H](Cc1ccccc1)C(=O)N[C@H](C(=O)N[C@@H](CC(N)=O)C(=O)N[C@@H](Cc1c[nH]c2ccccc12)C(=O)N[C@@H](CC(C)C)C(=O)N[C@@H](CC(C)C)C(=O)N[C@@H](C)C(=O)N[C@@H](CCC(N)=O)C(=O)N[C@@H](CCCCN)C(=O)O)C(C)C)[C@@H](C)CC
Consider B1, for which, in data set [3], the “nM (Kb, Gaddum assay, cAMP)” value stood at 7.6 nM and the “pKb (Gaddum assay, cAMP)” value stood at 8.1.

B2: AT720 (peptide)
peptide: EGTFISEYSI[Aib]LEKIK([Aib-C16 diacid])QQEFVEWLLAQKPSSGAPPPS-OH
modifications: N-terminus assumed
SMILES: CC[C@H](C)[C@H](NC(=O)[C@H](CCCCN)NC(=O)[C@H](CCC(=O)O)NC(=O)[C@H](CC(C)C)NC(=O)C(C)(C)NC(=O)[C@@H](NC(=O)[C@H](CO)NC(=O)[C@H](Cc1ccc(O)cc1)NC(=O)[C@H](CCC(=O)O)NC(=O)[C@H](CO)NC(=O)[C@@H](NC(=O)[C@H](Cc1ccccc1)NC(=O)[C@@H](NC(=O)CNC(=O)[C@@H](N)CCC(=O)O)[C@@H](C)O)[C@@H](C)CC)[C@@H](C)CC)C(=O)N[C@@H](CCCCNC(=O)C(C)(C)NC(=O)CCCCCCCCCCCCCCC(=O)O)C(=O)N[C@@H](CCC(N)=O)C(=O)N[C@@H](CCC(N)=O)C(=O)N[C@@H](CCC(=O)O)C(=O)N[C@@H](Cc1ccccc1)C(=O)N[C@H](C(=O)N[C@@H](CCC(=O)O)C(=O)N[C@@H](Cc1c[nH]c2ccccc12)C(=O)N[C@@H](CC(C)C)C(=O)N[C@@H](CC(C)C)C(=O)N[C@@H](C)C(=O)N[C@@H](CCC(N)=O)C(=O)N[C@@H](CCCCN)C(=O)N1CCC[C@H]1C(=O)N[C@@H](CO)C(=O)N[C@@H](CO)C(=O)NCC(=O)N[C@@H](C)C(=O)N1CCC[C@H]1C(=O)N1CCC[C@H]1C(=O)N1CCC[C@H]1C(=O)N[C@@H](CO)C(=O)O)C(C)C
For B2, in data set [3], the “nM (Kb, Gaddum assay, cAMP)” value came out at 0.29 nM and the “pKb (Gaddum assay, cAMP)” value was determined as 9.5.

The record behind these values is patent US20230416330A1, “Optimized GIP Peptide Analogues” (Antag Therapeutics ApS, priority 2019, published 2023).
